Experimental data reported in patent publication US5874481A, “Fluorochemical solutions for the delivery of lipophilic pharmaceutical agents” (priority 1995, dated 1999).
Converted amounts (≈) assume the structure as drawn. Like-named read-outs stand apart in the source and are kept apart here.

Key:
[1] = Effect of fluorochemical lipophilicity on pharmaceutical solubility (Example 7); format: physicochemical
Description: Pharmaceutical fluorochemical solutions were prepared as follows: […]

[2] = cited from earlier work
[3] = Solubility in perfluorooctyl ethane (Example 6); format: physicochemical; conditions: organic solvent or mixture; saturated in n-C8F17C2H5; read-out: g/L in C8F17C2H5
Description: A pharmaceutical fluorochemical solution was prepared as follows:
An aliquot of n-C8 F17 C2 H5 (2 mL; F-Tech, Inc.) was saturated with "Drug" (Sigma Chemical Co.).

[4] = in vivo, cited from earlier work
[5] = Solubility of prednisone in fluorocarbons (Example 5); format: physicochemical; conditions: organic solvent or mixture, read-out: mg/L of prednisone in fluorochemical matrix
Description: A prednisone containing perfluorochemical solution was prepared as follows:
The column was a 25 cm amino column (Rainin), and the detection was carried out by a UV detector (Beckman System Gold) at the end of the column.

[6] = octanol/pH 7.4 isotonic phosphate buffer at 37° C.

c1ccc2ccccc2c1 [Naphthalene]
solubility ([1]; organic solvent or mixture, in C6F13C2H5, read-out: Naphthalene): 12000 µg/mL (≈ 93.6 mM) | solubility ([1]; organic solvent or mixture, in C6F13C6H13, read-out: Naphthalene): 30000 µg/mL (≈ 234 mM) | solubility ([1]; organic solvent or mixture, in C6F13C8H17, read-out: Naphthalene): 40000 µg/mL (≈ 312 mM) | solubility ([1]; organic solvent or mixture, in C8F17C2H5, read-out: Naphthalene): 8000 µg/mL (≈ 62.4 mM) | solubility ([1]; organic solvent or mixture, in C8F17C4H9, read-out: Naphthalene): 14000 µg/mL (≈ 109 mM) | solubility ([1]; organic solvent or mixture, in C8F17C6H13, read-out: Naphthalene): 23000 µg/mL (≈ 179 mM) | log Po/w ([2]; Example 6, source not stated): 3.387 | solubility [3]: 8.1 g/L (≈ 63.2 mM)

CCCCCCc1ccccc1 [Hexylbenzene]
log Po/w ([2]; octanol/water): 5.52 | solubility [3]: 67.1 g/L (≈ 413 mM)

Cc1ccc(O)cc1 [p-Cresol]
log Po/w ([2]; Example 6, source not stated): 1.9 | solubility [3]: 3.9 g/L (≈ 36.1 mM)

CCCCCC(=O)OCCOCn1cnc2c(=O)[nH]c(N)nc21 [hexanoyl acyclovir]
Log Po/w [2, 6]: 0.93

CCc1ccccc1O [o-Ethylphenol]
solubility [3]: 9.4 g/L (≈ 76.9 mM)

OC(CCN1CCCCC1)(c1ccccc1)C1CCCCC1 (stereo not shown) [trihexyphenidyl]
Log Po/w ([2]; octanol/water, pH 7.4): 3.17 | Octanol/water partition coefficient Po/w ([2]; octanol/water, pH 7.4): 1.47 × 10^3

CC(=O)[C@H]1CC[C@H]2[C@@H]3CCC4=CC(=O)CC[C@]4(C)[C@H]3CC[C@]12C [^14 C-progesterone, progesterone]
Octanol/water partition coefficient Po/w ([2]; octanol/water): 7.9 × 10^3

c1ccc2cc3ccccc3cc2c1 [Antracene]
log Po/w ([2]; Example 6, source not stated): 4.473 | solubility [3]: 0.09 g/L (≈ 0.505 mM)

CC(C)=CCN1CCC2(C)c3cc(O)ccc3CC1C2C (stereo not shown) [pentazocin]
Log Po/w [2, 6]: 2.18 | Octanol/water partition coefficient Po/w [2, 6]: 150

CC/C(=C(/CC)c1ccc(O)cc1)c1ccc(O)cc1 [^3 H -diethylstilbesterol, diethylstilbesterol]
Octanol/water partition coefficient Po/w ([2]; octanol/water): 1.26 × 10^5

CCCCC(=O)OCCOCn1cnc2c(=O)[nH]c(N)nc21 [valeryl acyclovir]
Log Po/w [2, 6]: 0.30

CCc1cc2c(s1)N(C)C(=O)CN=C2c1ccccc1Cl [clotiazepam]
Log Po/w [2, 6]: 3.49 | Octanol/water partition coefficient Po/w [2, 6]: 3.06 × 10^3

CC(=O)O[C@H]1C(=O)[C@@]2(C)[C@H]([C@H](OC(=O)c3ccccc3)[C@]3(O)C[C@H](OC(=O)[C@H](O)[C@@H](NC(=O)c4ccccc4)c4ccccc4)C(C)=C1C3(C)C)[C@]1(OC(C)=O)CO[C@@H]1C[C@@H]2O [paclitaxel]
systemic toxicities ([4]; iv): high systemic toxicities | systemic toxicities associated with paclitaxel [4]: cardiac toxicity and neurotoxicity

CN(C)CCCN1c2ccccc2CCc2ccc(Cl)cc21 [clomipramine]
Octanol/water partition coefficient Po/w ([2]; octanol/water, pH 7.4): 3.80 × 10^3

CCCCc1ccccc1 [Butylbenzene]
log Po/w ([2]; Example 6, source not stated): 4 | solubility [3]: 116 g/L (≈ 862 mM)

C[C@]12C=CC(=O)C=C1CC[C@@H]1[C@@H]2C(=O)C[C@@]2(C)[C@H]1CC[C@]2(O)C(=O)CO [prednisone]
solubility ([5]; 1,4-dibromooctafluorobutane with 10% ethanol, in 1,4-Dibromooctafluorobutane with 10% Ethyl Alcohol): 1700 mg/L (≈ 4.74 mM) | solubility ([5]; 1,4-dibromooctafluorobutane with 50% ethanol, in 1,4-Dibromooctafluorobutane with 50% Ethyl Alcohol): 3800 mg/L (≈ 10.6 mM) | solubility ([5]; n-c6f13c2h5 with 3% ethanol, in n-C6F13C2H5 with 3% Ethyl Alcohol): 27 mg/L (≈ 0.0753 mM) | solubility ([5]; n-c6f13c6h13 with 3% ethanol, in n-C6F13C6H13 with 3% Ethyl Alcohol): 80 mg/L (≈ 0.223 mM) | solubility ([5]; n-c8f17br with 3% ethanol, in n-C8F17Br with 3% Ethyl Alcohol): < 1 mg/L | solubility ([5]; in 1,4-Dibromooctafluorobutane): < 1 mg/L

c1ccc2cc3cc4ccccc4cc3cc2c1 [2,3 Benzanthracene]
log Po/w ([2]; Example 6, source not stated): 5.807 | solubility [3]: 0.0003 g/L (≈ 0.00131 mM)

CCCCCCCCCCCC(=O)N1CCCCCC1 [^14 C-hexamethylene lauramide, hexamethylene lauramide]
Log Po/w ([2]; octanol/water): 7.3 | Octanol/water partition coefficient Po/w ([2]; octanol/water): 2.00 × 10^7

CCCCN1CCCCC1C(=O)Nc1c(C)cccc1C (stereo not shown) [bupivacaine]
Octanol/water partition coefficient Po/w ([2]; octanol/water): 28.2

c1ccc2cc3ccccc3cc2c1 [^14 C-anthracene, anthracene]
Octanol/water partition coefficient Po/w ([2]; octanol/water): 3.16 × 10^4

CC(CN1c2ccccc2Sc2ccccc21)N(C)C (stereo not shown) [promethazine]
Log Po/w [2, 6]: 3.10 | Octanol/water partition coefficient Po/w [2, 6]: 1.27 × 10^3

CCCCCCCCCCCCCCCc1cccc(O)c1 [m-Pentadecylphenol]
solubility ([1]; c6f13c2h5, organic solvent or mixture): 700 µg/mL (≈ 2.3 mM) | solubility ([1]; c6f13c6h13, organic solvent or mixture): 4100 µg/mL (≈ 13.5 mM) | solubility ([1]; c6f13c8h17, organic solvent or mixture): 5600 µg/mL (≈ 18.4 mM) | solubility ([1]; c8f17c2h5, organic solvent or mixture): 400 µg/mL (≈ 1.31 mM) | solubility ([1]; c8f17c4h9, organic solvent or mixture): 600 µg/mL (≈ 1.97 mM) | solubility ([1]; c8f17c6h13, organic solvent or mixture): 1700 µg/mL (≈ 5.58 mM) | log Po/w ([2]; octanol/water): 9.53 | solubility [3]: 0.4 g/L (≈ 1.31 mM)
